Data taken from patent US4767749A, “Ester of (triarylphosphoranylidene)carbamic acid having diuretic and ability to lower plasma renin properties” (American Cyanamid Company, priority 1986, dated 1988).

What was measured:
plasma renin activity = assay: Inhibition of evoked (drug-induced) elevation of plasma renin activity in conscious rats; assay type: in vivo, male Wistar rats; details: Rattus norvegicus, 30 min before provocative treatment; for inhibition in vivo at 25 mg/kg: 25 mg/kg oral
Method: Inhibition of evoked increase of plasma renin activity was determined by the following test.
Compounds were tested for their ability to prevent drug-induced elevation of plasma renin activity (PRA) in concious, male Wistar rats (180-200 g, Charles River Lab.). PRA elevation was induced by a combined oral provacative treatment (C) of hydrochlorothiazide (10 mg/kg) and 1-(3-benzoyl-3-mercapto-2-methylpropionyl)-L-proline, acetate (U.S. Pat. No. 4,226,775) (one mg/kg), prepared by compounding in a mortar and pestle with preboiled 3% starch suspension. This treatment provided the daily maximum PRA. The daily minimum PRA was obtained from rats given oral starch suspension (S) alone. The magnitude of drug effect on PRA elevation was ascertained from rats pretreated orally with test agent (D), at the indicated doses, 30 minutes prior to administration of provacative treatment (C). The test agent was also compounded in preboiled 3% starch suspension. The dose volumes for both pretreatment and provocative treatment were 2 ml/kg. One hour after provocative treatment the rats were sacrificed by decapitation and the first 3 seconds of blood collected in two chilled Vacutainer® tubes (Becton-Dickinson, Rutherford, N.J.) containing 40 μl of 150 mg/ml tripotassium EDTA. The plasma fractions, obtained by centrifugation for 20 minutes at 4° C. and 3000 G, were incubated (one of each pair at 37° C., the other at 4° C.) at pH 6.8 in 50 mM phosphate buffer to produce angiotensin I. The incubates contained peptidase inhibitors to prevent angiotensin I degradation and the incubation buffer contained one mg/ml lysozyme (Sigma Grade III) used as an antiabsorbant. The incubates were diluted 20 fold in cold 100 mM Tris buffer (pH adjusted to 7.4 with glacial acetic acid) also containing one mg/ml lysozyme, and then frozen. Diluted incubates were assayed within 3 days for angiotensin I content by radioimmunoassay according to a modification of the method of Haber, et al., J. Clin. Endocrin., 29, 1349-1355 (1969).
PRA is calculated as follows:
PRA(ng AI/hour/ml plasma)=PRA 37° C.-PRA 4° C.
Percent inhibition of PRA elevation is calculated as follows: [formula]

[1] = system: spontaneously hypertensive rats (SHR); assay: Diuretic activity in spontaneously hypertensive rats; assay type: in vivo, male spontaneously hypertensive rats (Okamoto strain); details: 100 mg/kg by gavage with 0.9% sodium chloride loading 25 ml/kg; 0-5 hour urine
Method: The diuretic activity of the compounds of this invention was also determined according to the method of Chan, P. S. and Poorvin, D., Sequential method for combined screening antihypertensive and diuretic agents in the same spontaneously hypertensive rat. Clinical and Experimental Hypertension, 1(6), 817-830 (1979).
Male spontaneously hypertensive rats (SHR) of Okamoto strain, 16 weeks old, Taconic Farms Inc. were used in the test. These rats were kept on Purina laboratory chow and tap water ad libitum for 8 weeks before use. One male adult rat (about 300 g) was dosed by gavage with a test compound at 100 mg/kg together with 0.9% sodium chloride loading at 25 ml/kg at zero hour. The test compound was suspended in 3% preboiled starch at 50 mg/ml. The rat was put in a metabolism cage. The 0-5 hour urine was collected and urinary sodium and potassium were determined using a Beckman Astra 4. The effects of representative compounds of the invention according to this test appear in Table III expressed in milliequivalents (mEQ) of urinary sodium and potassium excreted.

Row | Compound | inhibition in vivo at 25 mg/kg (plasma renin activity) [%] | Potassium (urinary excretion) [1] [mEQ/5 Hours] | Sodium (urinary excretion) [1] [mEQ/5 Hours] | Volume (urine) [1] [mL] | inhibition in vivo at 50 mg/kg (plasma renin activity; 50 mg/kg oral) [%] | inhibition in vivo at 100 mg/kg (plasma renin activity; 100 mg/kg oral) [%]
1 | CCOC(=O)N=P(c1ccccc1)(c1ccccc1)c1ccccc1Cl [[(2-chlorophenyl)diphenylphosphoranylidene]carbamic acid, ethyl ester] | 96 | 0.71 | 2.05 | 19.5 |  | 
2 | COC(=O)N=P(c1ccccc1)(c1ccccc1)c1ccccc1 [(Triphenylphosphoranylidene)carbamic acid, methyl ester] | 72 | 0.55 | 2.53 | 23.3 |  | 
3 | Cc1ccccc1P(=NC(=O)OCC1CC1)(c1ccccc1)c1ccccc1 [[(2-methylphenyl)diphenylphosphoranylidene]carbamic acid, cyclopropylmethyl ester] | 72 | 0.73 | 1.33 | 12.0 |  | 
4 | CCOC(=O)N=P(c1ccccc1)(c1ccccc1)c1ccccc1C(F)(F)F [[diphenyl[2-(trifluoromethyl)phenyl]phosphoranylidene]carbamic acid, ethyl ester] | 75 | 0.91 | 2.12 | 19.3 |  | 
5 | CCCOC(=O)N=P(c1ccccc1)(c1ccccc1)c1ccccc1 [(Triphenylphosphoaranylidene)carbamic acid, n-propyl ester] | 90 | 0.48 | 1.37 | 12.5 |  | 
6 | CCOC(=O)N=P(c1ccccc1)(c1ccccc1)c1ccccc1C [[(2-Methylphenyl)diphenylphosphoranylidene]carbamic acid, ethyl ester] | 92 | 0.78 | 2.68 | 25.5 |  | 
7 | COC(=O)N=P(c1ccccc1)(c1ccccc1)c1ccccc1C(F)(F)F [[diphenyl[2-(trifluoromethyl)phenyl]phosphoranylidene]carbamic acid, methyl ester] | 49 | 1.02 | 1.71 | 18.5 |  | 
8 | C=CCOC(=O)N=P(c1ccccc1)(c1ccccc1)c1ccccc1 [(triphenylphosphoranylidene)carbamic acid, 2-propenyl ester] | 67 | 0.67 | 1.17 | 13.3 |  | 
9 | CCOC(=O)N=P(c1ccccc1)(c1ccccc1C)c1ccccc1C [[bis(2-methylphenyl)phenylphosphoranylidene]carbamic acid, ethyl ester] | 54 | 0.73 | 1.46 | 14.5 |  | 
10 | Cc1ccccc1P(=NC(=O)OCc1cccnc1)(c1ccccc1)c1ccccc1 [[(2-Methylphenyl)diphenylphosphoranylidene]carbamic acid, 3-pyridinylmethylester] | 75 | 0.62 | 1.48 | 12.3 |  | 
11 | O=C(N=P(c1ccccc1)(c1ccccc1)c1ccccc1)OC1CCOC1 (stereo not shown) [(Triphenylphosphoranylidene)carbamic acid, tetrahydro-3-furanyl ester] | 69 | 0.70 | 1.10 | 14.8 | 49 | 85
12 | CCc1ccccc1P(=NC(=O)OC)(c1ccccc1)c1ccccc1 [[(2-ethylphenyl)diphenylphosphoranylidene]carbamic acid, methyl ester] |  | 0.58 | 1.36 | 14.3 |  | 
13 | O=C(N=P(c1ccccc1)(c1ccccc1)c1ccccc1)OC1CCCC1 [(triphenylphosphoranylidene)carbamic acid, cyclopentyl ester] |  | 0.80 | 1.48 | 14.0 |  | 
14 | CC1(OC(=O)N=P(c2ccccc2)(c2ccccc2)c2ccccc2)CCCC1 [(Triphenylphosphoranylidene)carbamic acid, 1-methylcyclopentyl ester] |  | 0.86 | 1.49 | 14.8 |  | 
15 | CCOC(=O)N=P(c1ccccc1)(c1ccccc1Cl)c1ccccc1Cl [[bis(2-chlorophenyl)phenylphosphoranylidene]carbamic acid, ethyl ester] |  | 0.38 | 2.40 | 22.3 |  | 
16 | O=C(N=P(c1ccccc1)(c1ccccc1)c1ccccc1)OC1CCOCC1 [(triphenylphosphoranylidene)carbamic acid, tetrahydro-2 --H--pyran-4-yl ester] |  | 0.64 | 1.60 | 15.3 |  | 
17 | CCOC(=O)N=P(c1ccccc1)(c1ccccc1)c1cccc(C(F)(F)F)c1 [[(3-trifluorophenyl)diphenylphosphoranylidene]carbamic acid, ethyl ester] |  | 0.67 | 1.38 | 13.5 |  | 
18 | CCOC(=O)N=P(c1ccccc1)(c1ccccc1)c1c(C)cccc1C [[[(2,6-dimethylphenyl)diphenyl]phosphoranylidene]carbamic acid, ethyl ester] |  | 0.86 | 1.48 | 13.0 |  | 
19 | CC1CC1COC(=O)N=P(c1ccccc1)(c1ccccc1)c1ccccc1 (stereo not shown) [(triphenylphosphoranylidene)carbamic acid, (2-methylcyclopropyl)methyl ester] |  | 0.47 | 1.28 | 11.3 |  | 
20 | O=C(N=P(c1ccccc1)(c1ccccc1)c1ccccc1)OCc1ccncc1 [(triphenylphosphoranylidene)carbamic acid, 4-pyridinylmethyl ester] |  | 0.70 | 1.50 | 16.5 |  | 
21 | O=C(N=P(c1ccccc1)(c1ccccc1)c1ccccc1)OC(C1CC1)C1CC1 [(triphenylphosphoranylidene)carbamic acid, dicyclopropylmethyl ester] |  | 1.07 | 1.58 | 14.3 |  | 
22 | CCO[C@@H]1CCC[C@H]1OC(=O)N=P(c1ccccc1)(c1ccccc1)c1ccccc1 (relative stereo) [(triphenylphosphoranylidene)carbamic acid, trans-2-ethoxycyclopentyl ester] |  | 0.73 | 1.38 | 13.3 |  | 
23 | Cc1ccccc1P(=NC(=O)OC1CCCC1)(c1ccccc1)c1ccccc1 [[(2-methylphenyl)diphenylphosphoranylidene]carbamic acid, cyclopentyl ester] |  | 0.67 | 1.18 | 10.8 |  | 
24 | CCCC1(OC(=O)N=P(c2ccccc2)(c2ccccc2)c2ccccc2)CCCC1 [(triphenylphosphoranylidene)carbamic acid, 1-propylcyclopentyl ester] |  | 0.63 | 1.14 | 10.3 |  | 
